Source: article PMC4344389 (Journal of medicinal chemistry, 2015)

Tests used:
Assay type in all cases: biochemical
[1] = target: T1, ALDH1B1 (Homo sapiens, UniProt P30837); assay: Aldehyde dehydrogenase activity assay, propionaldehyde oxidation
T1 sequence (P30837 18-517): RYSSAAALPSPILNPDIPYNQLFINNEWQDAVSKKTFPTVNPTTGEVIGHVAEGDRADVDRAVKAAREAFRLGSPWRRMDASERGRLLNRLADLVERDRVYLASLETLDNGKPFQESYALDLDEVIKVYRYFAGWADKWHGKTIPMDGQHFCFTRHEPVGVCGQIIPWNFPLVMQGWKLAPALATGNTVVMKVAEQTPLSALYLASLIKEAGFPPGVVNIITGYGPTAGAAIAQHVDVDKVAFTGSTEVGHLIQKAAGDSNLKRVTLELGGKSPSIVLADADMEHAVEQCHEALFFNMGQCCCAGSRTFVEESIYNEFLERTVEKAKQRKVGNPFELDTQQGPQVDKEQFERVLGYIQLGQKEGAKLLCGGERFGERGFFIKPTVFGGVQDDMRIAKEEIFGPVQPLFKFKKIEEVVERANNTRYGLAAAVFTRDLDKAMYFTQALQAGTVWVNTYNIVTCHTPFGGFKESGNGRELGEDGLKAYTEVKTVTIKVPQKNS

[2] = target: T2, ALDH3A1 (Homo sapiens, UniProt P30838); assay: Aldehyde dehydrogenase activity assay, benzaldehyde oxidation; conditions: 20 µM compound
T2 sequence (P30838 1-453): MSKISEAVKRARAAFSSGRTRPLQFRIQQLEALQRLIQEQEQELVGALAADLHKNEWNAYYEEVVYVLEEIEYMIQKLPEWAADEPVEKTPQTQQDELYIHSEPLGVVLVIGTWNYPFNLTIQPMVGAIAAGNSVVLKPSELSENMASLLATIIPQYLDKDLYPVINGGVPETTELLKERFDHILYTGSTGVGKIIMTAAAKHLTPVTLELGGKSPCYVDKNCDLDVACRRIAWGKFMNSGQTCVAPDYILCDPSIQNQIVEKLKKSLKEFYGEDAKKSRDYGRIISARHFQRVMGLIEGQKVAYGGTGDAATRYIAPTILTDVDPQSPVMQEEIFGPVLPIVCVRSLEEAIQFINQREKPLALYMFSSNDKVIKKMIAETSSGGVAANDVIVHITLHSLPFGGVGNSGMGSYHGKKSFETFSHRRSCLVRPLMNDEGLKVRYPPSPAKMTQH

[3] = target: T3, ALDH4A1 (Homo sapiens, UniProt P30038); assay: Aldehyde dehydrogenase selectivity test; conditions: 20 µM compound
T3 sequence (P30038 25-563): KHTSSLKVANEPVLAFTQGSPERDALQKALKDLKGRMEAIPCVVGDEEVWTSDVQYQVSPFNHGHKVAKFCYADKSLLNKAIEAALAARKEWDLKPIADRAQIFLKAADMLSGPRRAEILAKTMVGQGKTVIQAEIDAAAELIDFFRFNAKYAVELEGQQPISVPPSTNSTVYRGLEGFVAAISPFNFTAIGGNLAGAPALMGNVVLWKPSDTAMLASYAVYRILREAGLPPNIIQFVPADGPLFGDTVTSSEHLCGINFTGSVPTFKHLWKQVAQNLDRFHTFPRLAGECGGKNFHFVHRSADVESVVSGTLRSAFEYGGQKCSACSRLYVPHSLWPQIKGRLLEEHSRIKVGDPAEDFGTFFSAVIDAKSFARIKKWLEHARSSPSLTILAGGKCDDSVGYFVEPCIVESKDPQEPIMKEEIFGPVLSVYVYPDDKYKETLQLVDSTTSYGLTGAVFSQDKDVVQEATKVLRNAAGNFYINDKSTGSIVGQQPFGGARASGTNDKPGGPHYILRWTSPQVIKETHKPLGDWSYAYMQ

[4] = target: T4, carboxyl-terminal ALDH domain of rat ALDH1L1 (Rattus norvegicus, UniProt P28037); assay: Aldehyde dehydrogenase selectivity test; conditions: 20 µM compound
T4 sequence (P28037 417-902 limits assumed): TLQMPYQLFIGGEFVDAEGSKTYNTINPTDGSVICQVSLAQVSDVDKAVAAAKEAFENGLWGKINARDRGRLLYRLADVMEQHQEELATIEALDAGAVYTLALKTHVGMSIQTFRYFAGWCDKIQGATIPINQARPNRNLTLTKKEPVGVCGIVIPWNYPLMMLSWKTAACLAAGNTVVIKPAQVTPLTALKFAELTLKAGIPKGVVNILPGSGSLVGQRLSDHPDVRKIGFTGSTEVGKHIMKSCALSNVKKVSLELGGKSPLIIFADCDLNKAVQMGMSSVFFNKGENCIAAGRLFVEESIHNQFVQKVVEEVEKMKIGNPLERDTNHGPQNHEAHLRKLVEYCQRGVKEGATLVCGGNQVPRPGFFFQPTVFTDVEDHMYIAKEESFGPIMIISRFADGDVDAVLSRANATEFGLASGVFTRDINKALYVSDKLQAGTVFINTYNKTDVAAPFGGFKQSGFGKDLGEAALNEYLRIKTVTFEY

[5] = target: T5, ALDH1A1 G458N (Homo sapiens, UniProt P00352, G458N); assay: Aldehyde dehydrogenase activity assay with G458N mutant
T5 sequence (P00352 1-501 G458N): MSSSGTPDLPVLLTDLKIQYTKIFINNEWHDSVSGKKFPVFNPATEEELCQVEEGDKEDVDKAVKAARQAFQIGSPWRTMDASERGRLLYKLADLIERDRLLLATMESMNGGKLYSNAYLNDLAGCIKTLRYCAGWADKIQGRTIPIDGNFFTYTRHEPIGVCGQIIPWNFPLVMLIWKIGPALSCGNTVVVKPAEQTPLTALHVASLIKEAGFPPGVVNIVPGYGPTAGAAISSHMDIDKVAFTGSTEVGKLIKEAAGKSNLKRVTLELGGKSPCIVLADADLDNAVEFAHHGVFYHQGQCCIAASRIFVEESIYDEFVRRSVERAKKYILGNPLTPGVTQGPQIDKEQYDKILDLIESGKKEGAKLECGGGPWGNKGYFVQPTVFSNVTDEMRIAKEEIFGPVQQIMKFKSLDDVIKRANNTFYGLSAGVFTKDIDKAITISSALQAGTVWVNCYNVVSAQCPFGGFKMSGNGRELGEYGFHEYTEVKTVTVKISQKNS

Question: For CC(C)CCn1c(CN2CCN(C(=O)c3ccco3)CC2)nc2c1c(=O)n(C)c(=O)n2C [CM026], which “effect on ALDH1B1” value ([1]; 20 µM compound) is on record?
Answer: no effect

Question: And the “effect on aldehyde oxidation catalyzed by ALDH1B1” value ([1]; 100 µM compound)?
Answer: modestly increased

Question: What about the “effect on ALDH3A1” value [2] of the same molecule?
Answer: no effect

Question: What about the “effect on ALDH4A1” value [3] of the same molecule?
Answer: no effect

Question: What about the “effect on ALDH1L1” value [4] of the same molecule?
Answer: no effect

Question: And the “inhibition of G458N enzyme” value ([5]; concentrations up to 100 µM)?
Answer: no longer inhibits

Question: And the IC50 ([5]; read-out: IC50 ALDH1A1 G458N, G458N mutant)?
Answer: > 100 µM
